Measurements from PubChem BioAssay AID248 (DTP/NCI, 2004).
Several values for one entry are separate records, joined by “and”; a condition that tells them apart may be missing. Equal values may be shown once. Inconclusive results and toxic doses are left out. Cut-off read from the data, not from the text of the source: active = T/C of 150% or more; inactive = T/C below 125%.

Tested on: L1210 leukemia ip in BDF1 mice, survival T/C
Test: NCI In Vivo Anticancer Drug Screen. Data for tumor model L1210 Leukemia (intraperitoneal) in B6D2F1 (BDF1) mice
Conditions: endpoint: mean survival time, higher = longer survival
How it was run: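 Read-out is survival time, reported as the treated-group measurement over the vehicle-control measurement.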

[1] = dose: 100.0 mg/kg/injection, schedule: Q01DX001 (ip), vehicle: carboxymethylcellulose (CMC)
[2] = dose: 200.0 mg/kg/injection, schedule: Q01DX001 (ip), vehicle: carboxymethylcellulose (CMC)
[3] = dose: 400.0 mg/kg/injection, schedule: Q01DX001 (ip), vehicle: carboxymethylcellulose (CMC)
[4] = dose: 100.0 mg/kg/injection, schedule: Q04DX003 (ip), vehicle: saline
[5] = dose: 200.0 mg/kg/injection, schedule: Q04DX003 (ip), vehicle: saline
[6] = dose: 400.0 mg/kg/injection, schedule: Q04DX003 (ip), vehicle: saline
[7] = dose: 100.0 mg/kg/injection, schedule: Q01DX001 (ip), vehicle: saline with Tween-80
[8] = dose: 200.0 mg/kg/injection, schedule: Q01DX001 (ip), vehicle: saline with Tween-80
[9] = dose: 400.0 mg/kg/injection, schedule: Q01DX001 (ip), vehicle: saline with Tween-80
[10] = dose: 100.0 mg/kg/injection, schedule: Q04DX003 (ip), vehicle: saline with Tween-80
[11] = dose: 200.0 mg/kg/injection, schedule: Q04DX003 (ip), vehicle: saline with Tween-80
[12] = dose: 400.0 mg/kg/injection, schedule: Q04DX003 (ip), vehicle: saline with Tween-80
[13] = dose: 100.0 mg/kg/injection, schedule: Q01DX001 (ip), vehicle: Klucel (hydroxypropylcellulose) (HPC)
[14] = dose: 100.0 mg/kg/injection, schedule: Q01DX009 (ip), vehicle: saline with Tween-80
[15] = dose: 200.0 mg/kg/injection, schedule: Q01DX001 (ip), vehicle: Klucel (hydroxypropylcellulose) (HPC)
[16] = dose: 200.0 mg/kg/injection, schedule: Q01DX009 (ip), vehicle: saline with Tween-80
[17] = dose: 400.0 mg/kg/injection, schedule: Q01DX001 (ip), vehicle: Klucel (hydroxypropylcellulose) (HPC)
[18] = dose: 400.0 mg/kg/injection, schedule: Q01DX009 (ip), vehicle: saline with Tween-80
[19] = dose: 50.0 mg/kg/injection, schedule: Q04DX003 (ip), vehicle: saline with Tween-80
[20] = dose: 100.0 mg/kg/injection, schedule: Q01DX001 (ip), vehicle: saline
[21] = dose: 100.0 mg/kg/injection, schedule: Q04DX002 (ip), vehicle: saline with Tween-80
[22] = dose: 200.0 mg/kg/injection, schedule: Q04DX002 (ip), vehicle: saline with Tween-80
[23] = dose: 400.0 mg/kg/injection, schedule: Q04DX002 (ip), vehicle: saline with Tween-80
[24] = dose: 25.0 mg/kg/injection, schedule: Q04DX003 (ip), vehicle: saline with Tween-80

Measured: T/C

COc1cc(C2c3cc4c(cc3C(O)C(CO)C2CO)OCO4)cc(OC)c1OC (stereo not given)
inactive: dose: 8.75 mg/kg/injection, schedule: Q01DX Z (ip), vehicle: carboxymethylcellulose (CMC) 100 % of control | dose: 11.5 mg/kg/injection, schedule: Q01DX Z (ip), vehicle: carboxymethylcellulose (CMC) 108 % of control | dose: 17.0 mg/kg/injection, schedule: Q01DX Z (ip), vehicle: carboxymethylcellulose (CMC) 113 % of control | dose: 17.5 mg/kg/injection, schedule: Q01DX Z (ip), vehicle: carboxymethylcellulose (CMC) 114 % of control | dose: 26.0 mg/kg/injection, schedule: Q01DX Z (ip), vehicle: carboxymethylcellulose (CMC) 120 % of control | dose: 35.0 mg/kg/injection, schedule: Q01DX Z (ip), vehicle: carboxymethylcellulose (CMC) 106 % of control | dose: 37.5 mg/kg/injection, schedule: Q04DX003 (ip), vehicle: saline 98 % of control | dose: 50.0 mg/kg/injection, schedule: Q01DX001 (ip), vehicle: carboxymethylcellulose (CMC) 95 % of control | dose: 70.0 mg/kg/injection, schedule: Q01DX Z (ip), vehicle: carboxymethylcellulose (CMC) 98 % of control | dose: 75.0 mg/kg/injection, schedule: Q04DX003 (ip), vehicle: saline 118 % of control | [1] 104 % of control | dose: 140.0 mg/kg/injection, schedule: Q01DX Z (ip), vehicle: carboxymethylcellulose (CMC) 100 % of control and 121 % of control | dose: 150.0 mg/kg/injection, schedule: Q04DX003 (ip), vehicle: saline 110 % of control | [2] 101 % of control | dose: 280.0 mg/kg/injection, schedule: Q01DX Z (ip), vehicle: carboxymethylcellulose (CMC) 105 % of control | [3] 98 % of control

O=C(O)COc1ccc(Cl)c2ccccc12
inactive: dose: 100.0 mg/kg/injection, schedule: Q04DX002 (ip), vehicle: Klucel (hydroxypropylcellulose) (HPC) 96 % of control | dose: 200.0 mg/kg/injection, schedule: Q04DX002 (ip), vehicle: Klucel (hydroxypropylcellulose) (HPC) 100 % of control

CCCCCCCCCCCCc1ccc(CSC(C(=O)OC)C(SCc2ccc(CCCCCCCCCCCC)cc2)C(=O)OC)cc1 (stereo not given)
inactive: [4] 103 % of control | [5] 101 % of control | [6] 94 % of control

Oc1cc(-c2ccccc2)c(-c2ccccc2)c(-c2ccccc2)c1-c1ccccc1
inactive: [7] 100 % of control | [8] 90 % of control | [9] 88 % of control

Cc1nc2cccc3ccc4c5ccccc5cc1c4c32
inactive: [10] 92 % of control | [11] 92 % of control | [12] 87 % of control

CCOC(=O)CCC(NC(=O)c1cc(Cl)c(N(C)S(=O)(=O)c2ccc(C)cc2)cc1Cl)C(=O)OCC (stereo not given)
inactive: [13] 107 % of control | [14] 94 % of control | [15] 108 % of control | [16] 97 % of control | [17] 102 % of control | [18] 94 % of control

COc1ccc(-n2c(=O)c(N=Nc3ccccc3Cl)c(O)n(-c3ccccc3C)c2=S)cc1
inactive: [13] 97 % of control | [15] 93 % of control | [17] 104 % of control

Cc1ccc(Cl)cc1NC(=O)N1C(C)CCCC1C (stereo not given)
inactive: dose: 25.0 mg/kg/injection, schedule: Q01DX009 (ip), vehicle: saline with Tween-80 94 % of control and 110 % of control | dose: 50.0 mg/kg/injection, schedule: Q01DX009 (ip), vehicle: saline with Tween-80 106 % of control and 108 % of control | [19] 100 % of control | [7] 101 % of control and 118 % of control | [20] 102 % of control | [21] 95 % of control and 89 % of control | [10] 104 % of control | [8] 101 % of control and 110 % of control | dose: 200.0 mg/kg/injection, schedule: Q01DX001 (ip), vehicle: saline 108 % of control | [22] 93 % of control and 106 % of control | [11] 109 % of control | [9] 101 % of control | [23] 102 % of control

c1ccc([Si](c2ccccc2)(c2ccccc2)c2cccs2)cc1
inactive: [10] 93 % of control | [11] 90 % of control | [12] 88 % of control

NCC1CC2CCC1C2 (stereo not given)
inactive: dose: 100.0 mg/kg/injection, schedule: Q01DX009 (ip), vehicle: saline 90 % of control | [4] 101 % of control | dose: 200.0 mg/kg/injection, schedule: Q01DX009 (ip), vehicle: saline 90 % of control | [5] 103 % of control | [6] 103 % of control

CCC(COC(=O)c1ccccc1)(COC(=O)c1ccccc1)[N+](=O)[O-]
inactive: [13] 105 % of control | [15] 95 % of control | [17] 108 % of control

N/C(=C\C(=O)Cl)C(=O)c1ccccc1
inactive: [7] 106 % of control | [8] 90 % of control | [9] 105 % of control

COc1ccc([N+](=O)[O-])cc1NS(=O)(=O)c1cccc([N+](=O)[O-])c1
inactive: [7] 95 % of control | [14] 89 % of control and 92 % of control | [21] 97 % of control and 101 % of control | [10] 97 % of control | [8] 91 % of control | [16] 92 % of control | [22] 95 % of control and 97 % of control | [11] 97 % of control | [9] 91 % of control | [18] 106 % of control | [23] 94 % of control and 101 % of control | [12] 90 % of control

CCOc1ccc(CC(=O)Nc2cc([N+](=O)[O-])ccc2NCCN(CC)CC)cc1
inactive: dose: 25.0 mg/kg/injection, schedule: Q04DX003 (ip), vehicle: other 97 % of control | dose: 50.0 mg/kg/injection, schedule: Q04DX003 (ip), vehicle: other 97 % of control | dose: 100.0 mg/kg/injection, schedule: Q04DX003 (ip), vehicle: other 95 % of control and 111 % of control

O=[N+]([O-])c1cc2c(cc1Br)-c1ccccc1/C2=N\O
inactive: [1] 103 % of control | [2] 101 % of control | [3] 97 % of control

CC(C)CCCC(C)C1CCC2C3CC=C4CC(C5C(=O)NC(=O)NC5=O)CCC4(C)C3CCC12C (stereo not given)
inactive: dose: 12.5 mg/kg/injection, schedule: Q04DX003 (ip), vehicle: saline with Tween-80 96 % of control | [24] 96 % of control | [19] 87 % of control | [12] 88 % of control

CC(C)(C)NC(=O)NCc1ccco1
inactive: dose: 12.5 mg/kg/injection, schedule: Q01DX009 (ip), vehicle: Klucel (hydroxypropylcellulose) (HPC) 98 % of control | dose: 25.0 mg/kg/injection, schedule: Q01DX009 (ip), vehicle: Klucel (hydroxypropylcellulose) (HPC) 98 % of control | dose: 50.0 mg/kg/injection, schedule: Q01DX009 (ip), vehicle: Klucel (hydroxypropylcellulose) (HPC) 101 % of control

O=C1Cc2ccccc2C(C(=O)O)O1 (stereo not given)
inactive: dose: 75.0 mg/kg/injection, schedule: Q01DX001 (ip), vehicle: saline 107 % of control | dose: 150.0 mg/kg/injection, schedule: Q01DX001 (ip), vehicle: saline 101 % of control | dose: 300.0 mg/kg/injection, schedule: Q01DX001 (ip), vehicle: saline 107 % of control

N#Cc1ccccc1CNc1ccccc1
inactive: [13] 94 % of control | [15] 96 % of control | [17] 96 % of control

CCC(C)N(C)N=Nc1ccc(C(N)=O)cc1 (stereo not given)
inactive: dose: 178.0 mg/kg/injection, schedule: Q01DX001 (ip), vehicle: other 104 % of control | dose: 267.0 mg/kg/injection, schedule: Q01DX001 (ip), vehicle: other 112 % of control

Nc1ncnc2c1ncn2C1OC(CO)C(N)C1O (stereo not given)
inactive: dose: 1.3 mg/kg/injection, schedule: Q01DX Z (ip), vehicle: carboxymethylcellulose (CMC) 105 % of control | dose: 2.0 mg/kg/injection, schedule: Q01DX Z (ip), vehicle: carboxymethylcellulose (CMC) 108 % of control | dose: 3.0 mg/kg/injection, schedule: Q01DX Z (ip), vehicle: carboxymethylcellulose (CMC) 113 % of control

BrCCC[P+](c1ccccc1)(c1ccccc1)c1ccccc1
inactive: dose: 12.5 mg/kg/injection, schedule: Q01DX009 (ip), vehicle: saline with Tween-80 103 % of control | [24] 97 % of control | dose: 50.0 mg/kg/injection, schedule: Q01DX001 (ip), vehicle: saline 104 % of control | dose: 50.0 mg/kg/injection, schedule: Q04DX003 (ip), vehicle: Klucel (hydroxypropylcellulose) (HPC) 107 % of control | [19] 97 % of control | [20] 116 % of control
